# Measurements as given in PMC6747015, “Structure–function study of a novel inhibitor of the casein kinase 1 family in Arabidopsis thaliana” (Plant Direct, 2019).
# Columns and labels:
# [1] = biological target: T1, CKL6 (AT4G28540) (Arabidopsis thaliana, UniProt Q8LPJ1); assay: AMI‐329 bead binding with AMI‐331 competitor, CKL6
# T1 construct: from tissue; host or cells: Arabidopsis seedlings, two weeks old
# Procedure: (§1) Screening for proteins bound to AMI‐329 beads was done by a method similar to what has previously been described (Uehara et al., 2019). Briefly, two‐week‐old seedlings grown under LD conditions were harvested at time points ZT2, ZT6, ZT9, and ZT17, and stored at −80°C. Proteins from the frozen plant samples were incubated with 0, 5, or 50 µM of AMI‐331 at 4°C for 30 min with rotary mixing. Two technical replicates were used for each experiment. PBS‐washed AMI‐329 beads were added to the protein samples and gently rotated at 4°C for 1 hr. AMI‐329 bead resins were washed with bead buffer (Uehara et al., 2019) six times. The washed resins were suspended in SDS sample buffer and boiled for 8 min. Protein samples were in‐gel‐digested as previously described (Uehara et al., 2019). Peptides were analyzed with a Q Exactive hybrid quadrupole‐orbitrap mass spectrometer (Thermo Fisher Scientific), as described previously (Uehara et al., 2019). […]
# (§2) However, another possible mechanism for the strong AMI‐331 biological activity in vivo is that it targets proteins other than the CK1 family for period lengthening. […] It is noteworthy that kinase AT4G08800 is very similar to the CKL family, but the ATP‐binding pocket of mammalian CK1 as determined by its crystal structure (Shinohara et al., 2017) was absent from AT4G08800, as shown in an Araport 11 model (https://www.araport.org). […]
# [2] = biological target: T2, YAK1 (AT5G35980) (Arabidopsis thaliana, UniProt Q8RWH3); assay: AMI‐329 bead binding with AMI‐331 competitor, YAK1
# T2 construct: Proteins from the frozen plant samples were incubated with 0, 5, or 50 µM of AMI‐331; from tissue; host or cells: two-week-old Arabidopsis seedlings (protein lysate)
# T2 sequence (Q8RWH3 whole entry): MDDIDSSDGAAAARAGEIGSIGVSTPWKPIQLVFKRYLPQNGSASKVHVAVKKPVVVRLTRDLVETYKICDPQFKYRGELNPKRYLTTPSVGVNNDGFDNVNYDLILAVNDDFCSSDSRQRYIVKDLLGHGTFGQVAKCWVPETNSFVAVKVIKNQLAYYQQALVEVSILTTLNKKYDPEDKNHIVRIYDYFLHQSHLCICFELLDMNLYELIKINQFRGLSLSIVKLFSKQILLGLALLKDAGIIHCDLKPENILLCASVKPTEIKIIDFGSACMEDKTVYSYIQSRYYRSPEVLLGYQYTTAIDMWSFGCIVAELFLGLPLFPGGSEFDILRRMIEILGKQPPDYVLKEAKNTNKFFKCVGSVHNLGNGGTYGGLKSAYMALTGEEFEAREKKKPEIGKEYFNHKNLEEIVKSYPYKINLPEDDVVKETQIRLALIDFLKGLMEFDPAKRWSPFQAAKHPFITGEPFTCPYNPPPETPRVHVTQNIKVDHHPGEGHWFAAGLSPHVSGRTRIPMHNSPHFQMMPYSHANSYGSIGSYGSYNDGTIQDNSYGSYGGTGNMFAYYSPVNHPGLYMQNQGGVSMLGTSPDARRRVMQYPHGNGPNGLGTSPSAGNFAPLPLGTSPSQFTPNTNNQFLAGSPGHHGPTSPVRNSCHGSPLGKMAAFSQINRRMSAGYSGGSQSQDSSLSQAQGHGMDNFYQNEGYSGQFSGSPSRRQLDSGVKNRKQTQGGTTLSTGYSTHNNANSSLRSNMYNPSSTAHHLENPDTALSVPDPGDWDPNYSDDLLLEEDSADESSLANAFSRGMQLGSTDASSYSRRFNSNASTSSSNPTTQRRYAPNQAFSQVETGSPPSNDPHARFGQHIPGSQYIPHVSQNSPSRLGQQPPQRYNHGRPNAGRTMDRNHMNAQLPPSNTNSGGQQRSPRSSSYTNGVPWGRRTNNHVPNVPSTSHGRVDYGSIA
# Procedure: as §1, §2
# [3] = test system: all members of the CK1 family and an additional ten non‐CK1 proteins; assay: AMI‐329 bead binding with AMI‐331 competitor, the 23 AMI‐331‐bound proteins; design: species or system Arabidopsis thaliana
# Procedure: as §1, §2
# [4] = test system: CCA1:LUC seedlings; assay: Bioluminescence-based circadian period lengthening in CCA1:LUC seedlings; type: in vivo, Arabidopsis thaliana
# Procedure: Bioluminescence‐based circadian rhythms of CCA1:LUC plants treated with small molecules were analyzed by auto‐luminescence detection (Churitsu CL96) as described previously (Uehara et al., 2019). Period length was automatically calculated as previously described (Kamioka et al., 2016).
# To estimate CK1 inhibitor activity in vivo, we choose to measure circadian period‐lengthening activity in Arabidopsis seedlings. The assay was made more efficient by monitoring the circadian period using a clock reporter plant line (CCA1:LUC) and an automated luminometer. These tools can be used to measure the circadian period with high confidence, and estimates of in vivo CK1 inhibitor activity are quantitative (Uehara et al., 2019). Four‐day‐old CCA1:LUC seedlings grown under 12‐hr light/12‐hr dark conditions were treated with IC261, PF‐670462, and PHA767491 at different concentrations, and seedling luminescence was monitored under constant light conditions. Dimethyl sulfoxide (DMSO), the solvent used for all of the CK1 inhibitors, was used as a control. IC261 lengthened the circadian period of CCA1:LUC seedlings in a dose‐dependent manner (Figure 1d), with a 2‐hr period lengthening at 500 µM. PF‐670462 and PHA767491 treatment concentrations also correlated with period lengthening (Figure 1e and f). The concentrations required for 2‐hr lengthening effects were 90 µM for PF‐670472 and 47 µM for PHA767491, which was consistent with previous work (Uehara et al., 2019). Thus, PHA767491 was the strongest in vivo CK1 inhibitor among the three inhibitors tested.
# [5] = test system: Unknown AT5G42765; assay: AMI‐329 bead binding with AMI‐331 competitor, unknown protein AT5G42765; design: species or system Arabidopsis thaliana
# Procedure: as §1, §2
# [6] = biological target: T3, CKL10 (AT3G23340) (Arabidopsis thaliana, UniProt Q9LW62); assay: AMI‐329 bead binding with AMI‐331 competitor, CKL10
# T3 construct: from tissue; host or cells: Arabidopsis seedlings, two weeks old
# T3 sequence (Q9LW62 whole entry): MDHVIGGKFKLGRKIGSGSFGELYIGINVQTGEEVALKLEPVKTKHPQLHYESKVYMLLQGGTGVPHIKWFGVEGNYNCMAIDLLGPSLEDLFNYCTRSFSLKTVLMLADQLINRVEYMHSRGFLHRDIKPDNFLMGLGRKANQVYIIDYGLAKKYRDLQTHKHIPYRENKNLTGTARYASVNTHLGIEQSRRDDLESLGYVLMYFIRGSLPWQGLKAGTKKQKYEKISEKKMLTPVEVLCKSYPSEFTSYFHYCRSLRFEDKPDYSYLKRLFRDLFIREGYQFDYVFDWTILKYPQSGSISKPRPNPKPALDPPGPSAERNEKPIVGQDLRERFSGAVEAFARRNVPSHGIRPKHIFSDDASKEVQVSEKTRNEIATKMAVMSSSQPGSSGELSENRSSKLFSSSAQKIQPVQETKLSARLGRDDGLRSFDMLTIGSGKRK
# Procedure: as §1, §2
# [7] = CCA1:LUC seedlings, constant light
# T1 sequence (Q8LPJ1 whole entry): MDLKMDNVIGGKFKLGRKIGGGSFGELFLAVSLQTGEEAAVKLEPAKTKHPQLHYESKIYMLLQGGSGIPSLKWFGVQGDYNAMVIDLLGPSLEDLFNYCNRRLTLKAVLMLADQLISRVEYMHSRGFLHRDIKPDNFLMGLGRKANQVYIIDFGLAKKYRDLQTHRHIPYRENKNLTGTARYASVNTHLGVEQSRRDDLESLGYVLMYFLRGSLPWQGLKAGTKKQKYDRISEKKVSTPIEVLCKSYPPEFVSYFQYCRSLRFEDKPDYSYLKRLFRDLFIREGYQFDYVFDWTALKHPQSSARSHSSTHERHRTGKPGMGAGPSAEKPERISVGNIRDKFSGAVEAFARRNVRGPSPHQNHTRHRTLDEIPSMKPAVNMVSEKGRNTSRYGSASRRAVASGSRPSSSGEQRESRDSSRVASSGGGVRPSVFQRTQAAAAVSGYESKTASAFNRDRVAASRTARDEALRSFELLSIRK
compound,measurement,setting,value
C#CCn1c2c(c(Br)c1-c1ccncc1)C(=O)NCC2.Cl [AMI‐331],Spectra (PSMs) AMI‐329 beads bound,[1]; competitor AMI‐331 5 µM,1 PSMs
same,Spectra (PSMs) AMI‐329 beads bound,[1]; competitor AMI‐331 50 µM,0 PSMs
same,Spectra (PSMs) AMI‐329 beads bound,[2]; competitor AMI‐331 5 µM,0 PSMs
same,Spectra (PSMs) AMI‐329 beads bound,[2]; competitor AMI‐331 50 µM,0 PSMs
same,Spectra on AMI‐329 beads compared to the control sample without competitor,[3]; 5 µM AMI‐331 as competitor,0% to 7%
same,Spectra on AMI‐329 beads,[3]; 50 µM AMI‐331 as competitor,absent
same,Concentration required for 2‐hr period lengthening (2hLC),[4]; [7],0.4 µM
same,Concentration required for 5‐hr period lengthening (5hLC),[4]; [7],1.4 µM
same,Concentration that significantly lengthens the circadian clock period,[4]; in vivo,below 1 µM
same,Spectra (PSMs) AMI‐329 beads bound,[5]; competitor AMI‐331 5 µM,0 PSMs
same,Spectra (PSMs) AMI‐329 beads bound,[5]; competitor AMI‐331 50 µM,0 PSMs
same,Spectra (PSMs) AMI‐329 beads bound,[6]; competitor AMI‐331 5 µM,1 PSMs
same,Spectra (PSMs) AMI‐329 beads bound,[6]; competitor AMI‐331 50 µM,0 PSMs
